# PMC6688997 (Nature Communications, 2019)
# “And” between values parts separate entries of the source, which are not always exact repeats. Equal entries are not always repeated. Where two headings read alike, the source gives them in different places.
# Assays:
# [1] = Body weight of Ba/F3-CD74-ROS1-WT xenograft mice; assay type: in vivo, mouse; settings: for Body Weight Change(%) (average / SD): N 6
# [2] = tested on: Ba/F3-CD74-ROS1 cells (WT); experiment: CellTiter-Glo cell viability assay; assay type: cell-based, murine; settings: for IC50: 72 h
# CHK1 = CHK1 (Homo sapiens, UniProt O14757); experiment: Kinase assay, ATP Km; assay type: biochemical
# PAK4 = molecular target: T1, PAK4 (Homo sapiens, UniProt O96013); experiment: Kinase assay, ATP Km; assay type: biochemical
# T1 construct: purchased Carna Biosciences
# CK1γ1 = CK1γ1 (Homo sapiens, UniProt Q9HCP0); experiment: Kinase assay, ATP Km; assay type: biochemical
# MST2 = molecular target: T2, MST2 (Homo sapiens, UniProt Q13188); experiment: Kinase assay, ATP Km; assay type: biochemical
# T2 construct: purchased Carna Biosciences
# CDK6/CycD3 = CDK6/CycD3 (Homo sapiens, UniProt Q00534); experiment: Kinase assay, ATP Km; assay type: biochemical
# MARK2 = MARK2 (Homo sapiens, UniProt Q7KZI7); experiment: Kinase assay, ATP Km; assay type: biochemical
# HIPK4 = HIPK4 (Homo sapiens, UniProt Q8NE63); experiment: Kinase assay, ATP Km; assay type: biochemical
# MRCKα = molecular target: T3, MRCKα (Homo sapiens, UniProt Q5VT25); experiment: Kinase assay, ATP Km; assay type: biochemical
# T3 construct: purchased Carna Biosciences
# ARG = ARG (Homo sapiens, UniProt P42684); experiment: Kinase assay, ATP Km; assay type: biochemical
# ALK = molecular target: T4, ALK (Homo sapiens, UniProt Q9UM73); experiment: Kinase assay, 1 mM ATP; assay type: biochemical
# T4 construct: purchased Carna Biosciences, Inc. (Kobe, Japan); assay run by the vendor
# Erk1 = Erk1 (Homo sapiens, UniProt P27361); experiment: Kinase assay, ATP Km; assay type: biochemical
# FYN(isoform b) = FYN(isoform b) (Homo sapiens, UniProt P06241); experiment: Kinase assay, 1 mM ATP; assay type: biochemical; design: purchased Carna Biosciences
# Description: (§1) An off-chip mobility shift assay was performed by Carna Biosciences, Inc. (Kobe, Japan), according to their product instructions. […] The IC50 values were estimated according to the four-parameter logistic model.
# FYN(isoform a) = FYN(isoform a) (Homo sapiens, UniProt P06241); experiment: Kinase assay, 1 mM ATP; assay type: biochemical; design: purchased Carna Biosciences
# Description: as §1
# T4 sequence (Q9UM73 19-1620): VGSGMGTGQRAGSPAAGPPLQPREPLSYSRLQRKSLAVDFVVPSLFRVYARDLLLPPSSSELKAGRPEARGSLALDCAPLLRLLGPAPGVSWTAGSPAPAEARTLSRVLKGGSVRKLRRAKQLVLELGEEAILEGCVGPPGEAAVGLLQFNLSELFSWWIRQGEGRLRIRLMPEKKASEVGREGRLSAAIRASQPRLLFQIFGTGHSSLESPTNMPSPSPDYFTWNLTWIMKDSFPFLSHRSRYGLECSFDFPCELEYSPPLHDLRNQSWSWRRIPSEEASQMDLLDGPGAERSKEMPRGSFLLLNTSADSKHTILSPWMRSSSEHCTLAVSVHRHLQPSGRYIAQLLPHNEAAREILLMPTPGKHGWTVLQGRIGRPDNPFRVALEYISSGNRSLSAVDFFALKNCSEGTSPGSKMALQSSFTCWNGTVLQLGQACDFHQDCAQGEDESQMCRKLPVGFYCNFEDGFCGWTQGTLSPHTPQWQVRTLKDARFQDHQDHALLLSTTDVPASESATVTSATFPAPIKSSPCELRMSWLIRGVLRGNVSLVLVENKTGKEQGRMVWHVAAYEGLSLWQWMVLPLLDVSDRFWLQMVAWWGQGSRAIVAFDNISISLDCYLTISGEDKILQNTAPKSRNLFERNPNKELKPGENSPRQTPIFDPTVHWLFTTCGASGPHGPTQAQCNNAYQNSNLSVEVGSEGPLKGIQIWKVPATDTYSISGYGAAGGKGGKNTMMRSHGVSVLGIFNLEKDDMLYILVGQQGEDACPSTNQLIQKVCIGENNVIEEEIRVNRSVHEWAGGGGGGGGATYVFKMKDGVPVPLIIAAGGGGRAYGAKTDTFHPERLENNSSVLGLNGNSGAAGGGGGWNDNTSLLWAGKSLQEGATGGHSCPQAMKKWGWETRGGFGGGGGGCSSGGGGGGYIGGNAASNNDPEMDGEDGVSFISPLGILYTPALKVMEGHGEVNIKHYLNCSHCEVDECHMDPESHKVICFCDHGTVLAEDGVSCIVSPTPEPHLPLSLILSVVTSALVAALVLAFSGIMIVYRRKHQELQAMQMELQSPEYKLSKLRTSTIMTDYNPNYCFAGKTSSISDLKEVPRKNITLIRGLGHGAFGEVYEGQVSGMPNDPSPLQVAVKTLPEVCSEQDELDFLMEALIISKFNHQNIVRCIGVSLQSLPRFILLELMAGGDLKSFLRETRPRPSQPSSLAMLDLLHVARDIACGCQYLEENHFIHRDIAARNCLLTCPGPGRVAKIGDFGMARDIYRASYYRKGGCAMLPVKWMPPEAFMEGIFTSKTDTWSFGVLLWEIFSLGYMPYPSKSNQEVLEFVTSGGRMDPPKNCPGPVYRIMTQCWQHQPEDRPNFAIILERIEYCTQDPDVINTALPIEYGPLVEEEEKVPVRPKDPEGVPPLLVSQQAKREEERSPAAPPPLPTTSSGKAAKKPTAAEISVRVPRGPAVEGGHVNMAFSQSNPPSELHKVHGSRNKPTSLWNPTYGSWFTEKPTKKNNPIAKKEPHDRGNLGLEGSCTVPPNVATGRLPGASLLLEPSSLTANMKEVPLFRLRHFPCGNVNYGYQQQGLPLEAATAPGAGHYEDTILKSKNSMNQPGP
# Sequence of FYN(isoform a) (P06241 whole entry, canonical isoform): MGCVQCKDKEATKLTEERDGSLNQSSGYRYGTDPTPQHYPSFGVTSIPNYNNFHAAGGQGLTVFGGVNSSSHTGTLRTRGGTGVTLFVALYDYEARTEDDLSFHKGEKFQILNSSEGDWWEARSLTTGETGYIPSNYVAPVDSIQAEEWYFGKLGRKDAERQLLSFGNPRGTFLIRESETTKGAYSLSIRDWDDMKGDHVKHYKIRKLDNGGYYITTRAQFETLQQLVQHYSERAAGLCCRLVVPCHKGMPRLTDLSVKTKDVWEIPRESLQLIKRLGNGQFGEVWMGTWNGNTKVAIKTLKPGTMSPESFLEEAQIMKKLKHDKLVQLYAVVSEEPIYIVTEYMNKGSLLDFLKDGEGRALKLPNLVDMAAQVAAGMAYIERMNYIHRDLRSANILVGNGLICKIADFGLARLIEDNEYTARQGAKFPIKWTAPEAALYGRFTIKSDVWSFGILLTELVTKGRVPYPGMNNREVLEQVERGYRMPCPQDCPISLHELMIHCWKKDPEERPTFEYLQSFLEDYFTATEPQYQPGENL
# Sequence of CHK1 (O14757 whole entry): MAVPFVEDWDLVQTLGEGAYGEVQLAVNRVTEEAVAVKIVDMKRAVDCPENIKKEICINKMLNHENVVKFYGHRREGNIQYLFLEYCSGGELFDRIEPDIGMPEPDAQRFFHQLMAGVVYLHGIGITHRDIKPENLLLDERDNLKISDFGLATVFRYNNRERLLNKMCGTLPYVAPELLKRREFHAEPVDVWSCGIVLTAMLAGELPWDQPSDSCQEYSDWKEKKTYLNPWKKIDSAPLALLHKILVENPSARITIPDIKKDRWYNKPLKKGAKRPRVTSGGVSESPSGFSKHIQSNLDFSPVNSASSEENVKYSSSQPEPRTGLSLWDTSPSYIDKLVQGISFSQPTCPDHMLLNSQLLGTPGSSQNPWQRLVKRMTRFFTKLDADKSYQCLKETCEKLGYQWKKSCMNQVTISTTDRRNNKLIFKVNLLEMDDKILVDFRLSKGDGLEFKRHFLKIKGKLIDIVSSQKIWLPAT
# Sequence of CDK6/CycD3 (Q00534 whole entry): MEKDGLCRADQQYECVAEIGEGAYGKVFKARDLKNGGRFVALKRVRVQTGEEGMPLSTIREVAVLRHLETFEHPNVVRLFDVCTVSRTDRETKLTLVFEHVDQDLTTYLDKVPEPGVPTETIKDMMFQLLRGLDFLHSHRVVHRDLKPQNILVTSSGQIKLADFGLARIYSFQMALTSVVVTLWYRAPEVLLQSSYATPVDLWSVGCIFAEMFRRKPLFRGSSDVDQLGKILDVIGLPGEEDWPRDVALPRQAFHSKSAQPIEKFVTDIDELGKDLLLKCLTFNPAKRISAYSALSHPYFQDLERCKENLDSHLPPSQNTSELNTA
# Sequence of CDK6/CycD3 (P30281 whole entry partner): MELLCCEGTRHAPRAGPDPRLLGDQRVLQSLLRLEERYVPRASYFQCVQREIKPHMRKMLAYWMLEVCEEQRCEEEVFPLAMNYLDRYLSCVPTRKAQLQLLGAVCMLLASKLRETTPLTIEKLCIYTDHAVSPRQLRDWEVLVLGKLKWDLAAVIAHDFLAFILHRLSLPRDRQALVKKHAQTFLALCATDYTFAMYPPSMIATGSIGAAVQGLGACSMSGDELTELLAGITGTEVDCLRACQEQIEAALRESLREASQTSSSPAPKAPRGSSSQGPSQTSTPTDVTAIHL
# Sequence of Erk1 (P27361 whole entry, canonical isoform): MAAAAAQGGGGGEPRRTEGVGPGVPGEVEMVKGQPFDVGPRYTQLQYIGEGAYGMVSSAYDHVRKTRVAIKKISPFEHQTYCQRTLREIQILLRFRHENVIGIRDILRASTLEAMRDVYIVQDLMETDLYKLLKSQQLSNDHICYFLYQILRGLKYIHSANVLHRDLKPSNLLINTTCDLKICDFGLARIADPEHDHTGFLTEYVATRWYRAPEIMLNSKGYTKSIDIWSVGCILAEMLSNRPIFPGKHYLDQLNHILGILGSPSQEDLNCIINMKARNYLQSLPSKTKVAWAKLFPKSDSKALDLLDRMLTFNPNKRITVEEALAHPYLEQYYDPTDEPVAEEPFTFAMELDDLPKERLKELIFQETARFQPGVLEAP
# Sequence of FYN(isoform b) (P06241 1-534 isoform P06241-2): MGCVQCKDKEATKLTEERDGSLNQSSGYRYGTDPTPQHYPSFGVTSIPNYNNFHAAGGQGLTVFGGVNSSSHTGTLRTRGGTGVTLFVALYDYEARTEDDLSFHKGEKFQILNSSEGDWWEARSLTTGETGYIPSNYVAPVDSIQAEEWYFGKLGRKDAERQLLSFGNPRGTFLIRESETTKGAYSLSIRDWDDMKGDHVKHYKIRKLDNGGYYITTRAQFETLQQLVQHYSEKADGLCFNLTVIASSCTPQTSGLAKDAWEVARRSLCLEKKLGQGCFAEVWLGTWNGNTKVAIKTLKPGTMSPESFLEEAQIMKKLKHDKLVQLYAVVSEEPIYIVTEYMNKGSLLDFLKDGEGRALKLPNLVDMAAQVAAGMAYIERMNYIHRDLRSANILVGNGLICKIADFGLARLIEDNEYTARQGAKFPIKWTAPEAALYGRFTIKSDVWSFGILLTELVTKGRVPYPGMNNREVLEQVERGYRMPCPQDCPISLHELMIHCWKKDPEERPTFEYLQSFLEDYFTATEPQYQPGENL
# Sequence of HIPK4 (Q8NE63 whole entry): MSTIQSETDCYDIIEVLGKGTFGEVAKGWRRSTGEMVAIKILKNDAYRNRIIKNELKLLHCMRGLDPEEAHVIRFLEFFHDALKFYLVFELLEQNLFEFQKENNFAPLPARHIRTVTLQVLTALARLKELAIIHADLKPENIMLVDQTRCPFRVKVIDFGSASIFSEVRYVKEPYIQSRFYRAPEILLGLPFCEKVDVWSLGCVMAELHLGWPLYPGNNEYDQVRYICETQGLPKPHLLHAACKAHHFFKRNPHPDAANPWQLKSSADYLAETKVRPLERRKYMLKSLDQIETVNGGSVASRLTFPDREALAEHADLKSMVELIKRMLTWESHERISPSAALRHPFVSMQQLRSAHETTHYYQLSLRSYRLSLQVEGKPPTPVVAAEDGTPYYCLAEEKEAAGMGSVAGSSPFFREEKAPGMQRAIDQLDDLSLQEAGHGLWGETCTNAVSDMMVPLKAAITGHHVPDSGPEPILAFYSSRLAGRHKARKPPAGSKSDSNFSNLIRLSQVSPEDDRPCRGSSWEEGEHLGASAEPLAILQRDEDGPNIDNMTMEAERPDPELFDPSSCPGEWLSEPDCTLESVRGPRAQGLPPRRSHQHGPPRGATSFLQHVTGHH
smiles,measurement,setting,value
C[C@@H](N)COc1ccc(-c2cnc3ccc(N[C@H](C)c4cccc(F)c4)nn23)cc1.O=C(O)CCCCC(=O)O [DS-6051b],Body Weight Change(%) (average / SD),"[1]; DS-6051b 3 mg/kg po, day 4, average",1.5%
same,Body Weight Change(%) (individual),"[1]; DS-6051b 3 mg/kg po, day 4, individual animals",1.4% and 4.8% and 2.8% and -2.3% and 0.4% and 2%
same,Body Weight Change(%) (average / SD),"[1]; DS-6051b 10 mg/kg po, day 0, average",0.0%
same,Body Weight Change(%) (individual),"[1]; DS-6051b 10 mg/kg po, day 0, individual animals",0%
same,Body Weight Change(%) (average / SD),"[1]; DS-6051b 10 mg/kg po, day 1, average",-2.6%
same,Body Weight Change(%) (individual),"[1]; DS-6051b 10 mg/kg po, day 1, individual animals",-2.0% and -2.4% and -3.0% and -0.5% and -4.6% and -2.9%
same,Body Weight Change(%) (average / SD),"[1]; DS-6051b 10 mg/kg po, day 2, average",-0.7%
same,Body Weight Change(%) (individual),"[1]; DS-6051b 10 mg/kg po, day 2, individual animals",0.5% and -1.4% and -0.5% and 2.5% and -1.8% and -3.4%
same,Body Weight Change(%) (average / SD),"[1]; DS-6051b 10 mg/kg po, day 3, average",0.3%
same,Body Weight Change(%) (individual),"[1]; DS-6051b 10 mg/kg po, day 3, individual animals",1.5% and -0.5% and 2.5% and -0.9%
same,Body Weight Change(%) (average / SD),"[1]; DS-6051b 10 mg/kg po, day 4, average",-1.0%
same,Body Weight Change(%) (individual),"[1]; DS-6051b 10 mg/kg po, day 4, individual animals",1.0% and -2.4% and -2.5% and 1.5% and -1.8% and -1.9%
same,Body Weight Change(%) (average / SD),"[1]; DS-6051b 30 mg/kg po, day 0, average",0.0%
same,Body Weight Change(%) (individual),"[1]; DS-6051b 30 mg/kg po, day 0, individual animals",0%
same,Body Weight Change(%) (average / SD),"[1]; DS-6051b 30 mg/kg po, day 1, average",-3.0%
same,Body Weight Change(%) (individual),"[1]; DS-6051b 30 mg/kg po, day 1, individual animals",-1.9% and -2.5% and -2.8% and -3.4% and -2.6% and -5%
same,Body Weight Change(%) (average / SD),"[1]; DS-6051b 30 mg/kg po, day 2, average",-2.1%
same,Body Weight Change(%) (individual),"[1]; DS-6051b 30 mg/kg po, day 2, individual animals",-2.4% and -1.0% and -2.8% and -1.9% and -2.1% and -2.5%
same,Body Weight Change(%) (average / SD),"[1]; DS-6051b 30 mg/kg po, day 3, average",-2.0%
same,Body Weight Change(%) (individual),"[1]; DS-6051b 30 mg/kg po, day 3, individual animals",-1.0% and -2.3% and -2.9% and -1.5% and -3%
same,Body Weight Change(%) (average / SD),"[1]; DS-6051b 30 mg/kg po, day 4, average",-3.2%
same,Body Weight Change(%) (individual),"[1]; DS-6051b 30 mg/kg po, day 4, individual animals",-1.0% and -2.5% and -3.8% and -3.9% and -2.1% and -6%
same,Body Weight Change(%) (average / SD),"[1]; DS-6051b 100 mg/kg po, day 0, average",0.0%
same,Body Weight Change(%) (individual),"[1]; DS-6051b 100 mg/kg po, day 0, individual animals",0%
same,Body Weight Change(%) (average / SD),"[1]; DS-6051b 100 mg/kg po, day 1, average",-3.0%
same,Body Weight Change(%) (individual),"[1]; DS-6051b 100 mg/kg po, day 1, individual animals",-2.9% and -3.5% and -2.3% and -5.8% and -1.8% and -1.5%
same,Body Weight Change(%) (average / SD),"[1]; DS-6051b 100 mg/kg po, day 2, average",-2.4%
same,Body Weight Change(%) (individual),"[1]; DS-6051b 100 mg/kg po, day 2, individual animals",-2.5% and -1.5% and -3.6% and -3.1% and -2.3%
same,Body Weight Change(%) (average / SD),"[1]; DS-6051b 100 mg/kg po, day 3, average",-3.0%
same,Body Weight Change(%) (individual),"[1]; DS-6051b 100 mg/kg po, day 3, individual animals",-2.5% and -2.7% and -6.7% and -2.8% and -0.5%
same,Body Weight Change(%) (average / SD),"[1]; DS-6051b 100 mg/kg po, day 4, average",-2.2%
same,Body Weight Change(%) (individual),"[1]; DS-6051b 100 mg/kg po, day 4, individual animals",-3.4% and -2% and -2.7% and -4% and -2.3% and 1.5%
same,Body weight loss,[1]; ≥30 mg/kg,without severe body weight loss
same,IC50,[2],lower IC50 than crizotinib
same,IC50,"[2]; Mus musculus, read-out: IC50",0.8 nM
same,GI50,"[2]; Mus musculus, source data sheet",0.7 nM
same,inhibition at 0.04 µM,CHK1,22.6%
same,inhibition at 0.04 µM,PAK4,7.6%
same,inhibition at 0.04 µM,CK1γ1,2.4%
same,inhibition at 0.04 µM,MST2,42.3%
same,inhibition at 0.04 µM,CDK6/CycD3,-2.6%
same,inhibition at 0.04 µM,MARK2,30.4%
same,inhibition at 0.04 µM,HIPK4,2%
same,inhibition at 0.04 µM,MRCKα,-0.239%
same,inhibition at 0.04 µM,ARG,37.3%
same,% Inhibition,"ALK; 0.2μM, 1 mM ATP",almost completely inhibited
same,inhibition at 0.2 µM,"ALK; 0.2μM, 1 mM ATP",86.3%
same,IC50,ALK; ATP: 1 mM,32.5 nM
same,inhibition at 0.04 µM,Erk1,-0.174%
same,inhibition at 0.2 µM,FYN(isoform b),0.123%
same,inhibition at 0.2 µM,FYN(isoform a),2.2%
